Patent publication US9839642B2, “Beta-tetrazolyl-propionic acids as metallo-beta-lactamase inhibitors” (priority 2014, dated 2017)

Legend:
[1] = biological target: VIM-1 (Pseudomonas aeruginosa, UniProt A0A0F7KYQ8); experiment: Enzyme activity: determination of IC50, fluorescence assay with CCF2-FA substrate; type: biochemical; details: VIM-1 enzyme 30 pM, CCF2-FA 1.25 μM, 2 hours at 25° C.; read-out: VIM1 IC50
Outline: (§1)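 100 mM KH2PO4 pH 7 + 0.005% Tween-20 + 10 μM ZnSO4; CCF2-FA 1.25 μM; NDM-1 1 pM, IMP-1 2 pM, VIM-1 30 pM; cpd 20–0.00063 μM final, DMSO 1:50. 2 h, 25° C. Ex 405/em 460 nm; IC50, 4-param fit.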

[2] = biological target: IMP-1 (Serratia marcescens, UniProt P52699); experiment: as above; type: biochemical; details: IMP-1 enzyme 2 pM, CCF2-FA 1.25 μM, 2 hours at 25° C.; read-out: IMP1 IC50
Chain of IMP-1 (P52699 19-246, looked up, species assumed): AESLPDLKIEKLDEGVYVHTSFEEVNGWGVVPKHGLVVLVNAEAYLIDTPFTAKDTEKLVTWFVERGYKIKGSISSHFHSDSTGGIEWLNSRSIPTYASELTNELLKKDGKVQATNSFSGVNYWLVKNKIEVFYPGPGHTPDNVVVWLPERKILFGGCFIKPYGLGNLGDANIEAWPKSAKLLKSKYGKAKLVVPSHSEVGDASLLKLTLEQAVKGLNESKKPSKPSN
Outline: as §1

[3] = biological target: NDM-1 (Klebsiella pneumoniae, UniProt C7C422); experiment: as above; type: biochemical; details: NDM-1 enzyme 1 pM, CCF2-FA 1.25 μM, 2 hours at 25° C.; read-out: NDM1 IC50
Chain of NDM-1 (C7C422 29-270, looked up, species assumed): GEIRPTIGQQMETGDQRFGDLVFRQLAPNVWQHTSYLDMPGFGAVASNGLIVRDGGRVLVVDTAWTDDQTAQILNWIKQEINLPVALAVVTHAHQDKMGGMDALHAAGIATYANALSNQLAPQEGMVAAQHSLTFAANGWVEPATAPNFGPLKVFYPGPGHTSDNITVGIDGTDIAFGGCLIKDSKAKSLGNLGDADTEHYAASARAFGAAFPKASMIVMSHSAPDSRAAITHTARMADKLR
Outline: as §1

[4] = test system: Escherichia coli expressing NDM-1 (CLB30016); experiment: Antibiotic potentiation activity: synergistic concentration (MITC95) with imipenem, growth by OD600; type: cell-based; details: E. coli CLB30016 (NDM-1), 95% inhibition of growth
Outline: (§2)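 MITC95 = lowest inhibitor concentration giving 95% growth inhibition, read by absorbance after 22–24 h at 35° C. Compound range 200 μM to 0.195 μM, imipenem fixed at 1 or 4 μg/ml, bacteria in 1.1×CAMHB from saline suspension diluted 1:100.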

[5] = test system: Klebsiella pneumoniae expressing VIM-1 (IHMA599644); experiment: as above; type: cell-based; details: K. pneumoniae IHMA599644 (VIM-1), 95% inhibition of growth
Outline: as §2

[6] = test system: Serratia marcescens expressing IMP-1 (CL5741); experiment: as above; type: cell-based; details: S. marcescens CL5741 (IMP-1), 95% inhibition of growth
Outline: as §2

With `CC(C)(C)[C@H](C(=O)O)[C@H](Cc1cccc2sc(N)nc12)c1nnn[nH]1` [Example 424, (2R,3S)-4-(2-aminobenzo[d]thiazol-4-yl)-2-(tert-butyl)-3-(1H-tetrazol-5-yl)butanoic acid] as the compound, how does the IC50 [1] read?
The IC50 was 10.8 nM.

What about the IC50 [2] of the same compound?
Its IC50 is 9.29 nM.

What about the IC50 [3] of the same compound?
The IC50 was 2.68 nM.

What about the “NDM1 EC30016 MITC95” value [4] of the same compound?
Its value is 12.5 µM.

What about the “VIM1 KP599644 MITC95” value [5] of the same compound?
Its value is 200 µM.

What about the “IMP1 SM5741 MITC95” value [6] of the same compound?
Its value is 25 µM.

For `CCC[C@H](C(=O)O)[C@H](Cc1ccc(Br)s1)c1nnn[nH]1` [Example 425, (S)-2-((S)-2-(5-bromothiophen-2-yl)-1-(1H-tetrazol-5-yl)ethyl)pentanoic acid], which IC50 [1] is on record?
Its IC50 is 3.63 nM.

What about the IC50 [2] of the same compound?
The IC50 was 282 nM.

And the IC50 [3]?
The IC50 was 105 nM.

What about the “NDM1 EC30016 MITC95” value [4] of the same compound?
Its value is 12.5 µM.

What about the “VIM1 KP599644 MITC95” value [5] of the same compound?
Its value is 12.5 µM.

And the “IMP1 SM5741 MITC95” value [6]?
Its value is 25 µM.

Which results are given for `CC(C)(C)C(C(=O)O)[C@H](Cc1ccc(Br)s1)c1nnn[nH]1` (stereo partly drawn) [Example 426, (3S)-4-(5-bromothiophen-2-yl)-2-(tert-butyl)-3-(1H-tetrazol-5-yl)butanoic acid]?
IC50 [1]: 49.5 nM; IC50 [2]: 27.9 nM; IC50 [3]: 142 nM; NDM1 EC30016 MITC95 [4]: 12.5 µM; VIM1 KP599644 MITC95 [5]: 150 µM; IMP1 SM5741 MITC95 [6]: 2.344 µM

How did the IC50 [1] turn out when `CC(C)(C)[C@H](C(=O)O)[C@H](Cc1ccc(NCCN)nc1)c1nnn[nH]1.O=C(O)C(F)(F)F` [Example 427, 2-((5-((2S,3R)-3-carboxy-4,4-dimethyl-2-(1H-tetrazol-5-yl)pentyl)pyridin-2-yl)amino)ethan-1-aminium 2,2,2-trifluoroacetate] was run?
Its IC50 is 17.9 nM.

And the IC50 [2]?
Its IC50 is 342 nM.

What about the IC50 [3] of the same compound?
Its IC50 is 119 nM.

And the “NDM1 EC30016 MITC95” value [4]?
Its value is 1.563 µM.

What about the “VIM1 KP599644 MITC95” value [5] of the same compound?
Its value is 9.375 µM.

What about the “IMP1 SM5741 MITC95” value [6] of the same compound?
The value was 3.125 µM.

Which IC50 [1] does the source give for `CC(C)(C)[C@H](C(=O)O)[C@H](Cc1ccc(C2=CCNC2)nc1)c1nnn[nH]1.O=C(O)C(F)(F)F` [Example 429, 3-(5-((2S,3R)-3-carboxy-4,4-dimethyl-2-(1H-tetrazol-5-yl)pentyl)pyridin-2-yl)-2,5-dihydro-1H-pyrrol-1-ium 2,2,2-trifluoroacetate] here?
Its IC50 is 23.8 nM.

What about the IC50 [2] of the same compound?
Its IC50 is 615 nM.

What about the IC50 [3] of the same compound?
Its IC50 is 781 nM.

What about the “NDM1 EC30016 MITC95” value [4] of the same compound?
The value was 12.5 µM.

What about the “VIM1 KP599644 MITC95” value [5] of the same compound?
The value was 25 µM.

What about the “IMP1 SM5741 MITC95” value [6] of the same compound?
Its value is 18.75 µM.

`CC(C)(C)C(C(=O)O)[C@H](Cc1ccc(C2CCNC2)nc1)c1nnn[nH]1.O=C(O)C(F)(F)F` (stereo partly drawn) [Example 430, 3-(5-((2S)-3-carboxy-4,4-dimethyl-2-(1H-tetrazol-5-yl)pentyl)pyridin-2-yl)pyrrolidin-1-ium 2,2,2-trifluoroacetate] was tested. Which IC50 [1] did it give?
The IC50 was 52.6 nM.

And the IC50 [2]?
The IC50 was 544 nM.

What about the IC50 [3] of the same compound?
Its IC50 is 620 nM.

And the “NDM1 EC30016 MITC95” value [4]?
The value was 12.5 µM.

What about the “VIM1 KP599644 MITC95” value [5] of the same compound?
Its value is 25 µM.

What about the “IMP1 SM5741 MITC95” value [6] of the same compound?
Its value is 25 µM.

`CC(C)(C)[C@H](C(=O)O)[C@H](Cc1ccc(C2CCNC2)cc1)c1nnn[nH]1.O=C(O)C(F)(F)F` (stereo partly drawn) [Example 431, 3-(4-((2S,3R)-3-carboxy-4,4-dimethyl-2-(1H-tetrazol-5-yl)pentyl)phenyl)pyrrolidin-1-ium 2,2,2-trifluoroacetate] was tested. Which IC50 [1] did it give?
Its IC50 is 16.6 nM.

What about the IC50 [2] of the same compound?
The IC50 was 32.4 nM.

And the IC50 [3]?
Its IC50 is 71.7 nM.

And the “NDM1 EC30016 MITC95” value [4]?
The value was 6.25 µM.

What about the “VIM1 KP599644 MITC95” value [5] of the same compound?
Its value is 12.5 µM.

What about the “IMP1 SM5741 MITC95” value [6] of the same compound?
Its value is 2.344 µM.

Which IC50 [1] does the source give for `CCC[C@H](C(=O)O)[C@H](Cc1ccc(C2(O)CCNC2)cc1)c1nnn[nH]1.O=C(O)C(F)(F)F` (stereo partly drawn) [Example 432, 3-(4-((2S,3S)-3-carboxy-2-(1H-tetrazol-5-yl)hexyl)phenyl)-3-hydroxypyrrolidin-1-ium 2,2,2-trifluoroacetate] here?
The IC50 was 5.58 nM.

What about the IC50 [2] of the same compound?
Its IC50 is 1010 nM.

What about the IC50 [3] of the same compound?
The IC50 was 141 nM.

What about the “NDM1 EC30016 MITC95” value [4] of the same compound?
Its value is 9.375 µM.

And the “VIM1 KP599644 MITC95” value [5]?
The value was 12.5 µM.

What about the “IMP1 SM5741 MITC95” value [6] of the same compound?
Its value is 12.5 µM.
